Measured values from PMC9573605, “Exploring Nitric Oxide (NO)-Releasing Celecoxib Derivatives as Modulators of Radioresponse in Pheochromocytoma Cells” (Molecules, 2022).
Structures can show the parent of a compound that is named as a salt. Where two headings read alike, the source gives them in different places.

How the values were obtained:
recombinant human COX-2 [1] = target: T1, recombinant human COX-2 (Homo sapiens, UniProt P35354); set-up: method as in PMID 26081289; details: cited from earlier work; for SI: COX-1 vs COX-2 selectivity index, COX inhibition previously reported ref 49
T1 construct: purchased Cayman Chemical 700100
T1 sequence (P35354 18-604): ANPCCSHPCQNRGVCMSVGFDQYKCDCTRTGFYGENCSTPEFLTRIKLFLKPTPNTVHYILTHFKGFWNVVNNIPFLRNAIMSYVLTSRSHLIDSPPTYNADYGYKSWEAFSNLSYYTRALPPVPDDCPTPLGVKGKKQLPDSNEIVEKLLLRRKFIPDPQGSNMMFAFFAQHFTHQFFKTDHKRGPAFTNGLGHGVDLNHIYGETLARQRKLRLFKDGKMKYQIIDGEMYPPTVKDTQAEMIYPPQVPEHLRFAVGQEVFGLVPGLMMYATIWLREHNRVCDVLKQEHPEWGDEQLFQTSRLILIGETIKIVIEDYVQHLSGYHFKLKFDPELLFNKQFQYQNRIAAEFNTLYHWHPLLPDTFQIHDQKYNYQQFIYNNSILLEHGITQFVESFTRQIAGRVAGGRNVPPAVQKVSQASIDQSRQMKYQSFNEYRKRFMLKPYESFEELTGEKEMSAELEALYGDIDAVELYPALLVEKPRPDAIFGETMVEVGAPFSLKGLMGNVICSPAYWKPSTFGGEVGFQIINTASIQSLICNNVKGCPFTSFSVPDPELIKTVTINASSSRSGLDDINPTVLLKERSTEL

[2] = Lipophilicity logD7.4 by HPLC method; assay type: physicochemical; details: HPLC retention on ODP-50 4B column (Shodex Asahipak), phosphate buffer pH 7.4
Experimental: The lipophilicity of all synthesized compounds was determined as logD7.4, HPLC value by an HPLC method originally described by Donovan and Pescatore.
The logD7.4HPLC value was determined as previously reported by us utilizing an HPLC method originally described by Donovan and Pescatore.

purified ovine COX-1 [3] = target: T2, purified ovine COX-1 (Ovis aries, UniProt P05979); set-up: method as in PMID 26081289; details: previously reported ref 49; cited from earlier work
T2 construct: purchased Cayman Chemical 700100
T2 sequence (P05979 25-600): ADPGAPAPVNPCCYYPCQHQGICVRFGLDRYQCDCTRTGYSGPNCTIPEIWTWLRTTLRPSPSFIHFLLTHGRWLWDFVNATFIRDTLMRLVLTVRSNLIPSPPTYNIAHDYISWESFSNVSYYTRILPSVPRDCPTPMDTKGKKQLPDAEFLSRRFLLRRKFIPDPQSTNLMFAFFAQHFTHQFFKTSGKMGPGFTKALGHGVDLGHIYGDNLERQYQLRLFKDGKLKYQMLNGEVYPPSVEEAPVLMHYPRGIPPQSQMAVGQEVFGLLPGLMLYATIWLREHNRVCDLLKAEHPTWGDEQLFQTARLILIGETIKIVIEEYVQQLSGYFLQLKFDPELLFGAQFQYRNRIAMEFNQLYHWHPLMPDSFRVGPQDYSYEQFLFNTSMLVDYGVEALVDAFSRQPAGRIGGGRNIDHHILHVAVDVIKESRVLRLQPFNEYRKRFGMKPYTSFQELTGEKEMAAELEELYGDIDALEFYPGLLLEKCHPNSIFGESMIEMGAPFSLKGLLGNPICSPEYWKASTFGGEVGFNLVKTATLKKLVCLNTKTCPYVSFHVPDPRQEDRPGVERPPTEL

recombinant human COX-2 [4] = target: T1, recombinant human COX-2; test: COX Fluorescent Inhibitor Screening Assay, COX-2; assay type: biochemical; details: for SI: COX-1 vs COX-2 selectivity index; for IC50: human COX-2, 0.1 nM to 100 µM in duplicate
Experimental: (§1) COX inhibition (Table 1) was evaluated in vitro using purified ovine COX-1 and recombinant human COX-2 enzyme in a commercially available “COX Fluorescent Inhibitor Screening Assay KIT” (item no. 700100, Cayman Chemical, Ann Arbor, MI, USA). Celecoxib served as a reference and inhibition data concerning 4a, 4e, 5a and 5e were previously reported by us and is herein discussed for comparison.
(§2) COX inhibition activity against ovine COX-1 and human COX-2 was determined using the fluorescence-based COX assay “COX Fluorescent Inhibitor Screening Assay Kit” (catalog number 700100; Cayman Chemical, Ann Arbor, MI, USA) according to the manufacturer’s instructions. Compounds 6a–d were screened at a concentration of 100 µM, all others were assayed in a concentration range of 0.1 nM to 100 μM in duplicate.

purified ovine COX-1 [5] = target: T2, purified ovine COX-1; test: COX Fluorescent Inhibitor Screening Assay, COX-1; assay type: biochemical; details: 0.1 nM to 100 µM in duplicate
Experimental: as §1, §2

[6] = Fluorometric NO release assay (Griess assay); assay type: physicochemical; details: 24 h, 37 °C, relative to initial molar amount of compound; for thiol-dependent NO release: 2.5 mM cysteine; for spontaneous NO release: absence of cysteine
Experimental: The nitric oxide releasing properties of the nitroester-derivatives 5a–d, 5f, and 6a–d were evaluated using a fluorometric Griess assay in the presence and absence of cysteine to determine thiol-dependent and spontaneous release of nitric oxide (Figure 3).
Nitric oxide release of compounds within 24 h at 37 °C was measured using the fluorometric nitric oxide microplate assay kit ab65327 (Abcam, Cambridge, UK). For measurement of spontaneous release, 1.8 nmol of compounds were incubated in 75 µL Dulbecco’s PBS containing 0.05% v/v residual DMSO and 2.5 mM DTPA (pH = 7.1) for 24 h at 37 °C. Thiol-dependent release was measured accordingly in presence of 2.5 mM cysteine. Two series of nitrate standards were prepared (0.2−1 nmol) in 75 µL incubation buffer, in presence or absence of cysteine, respectively. According to the manufacturer’s instructions, all nitrate content in samples and standards was enzymatically converted into nitrite through incubation with nitrate reductase for 2 h at room temperature, and the resulting nitrite content (total nitric oxide) was determined through reaction with 2,3-diaminonaphthalene followed by measurement of fluorescence intensity at λex/em = 360/450 nm using a microplate reader. Nitrite content in samples was calculated from linear regression of standards and expressed as relative nitric oxide release (%) normalized to the initial molar amount of compound. NONOate served as positive control.
Figure 3 Spontaneous and thiol-dependent NO^• release from NO-COXIBs; measured using fluorometric Griess assay (n = 2); relative release indicates the percentage of soluble nitrogen species (nitrate + nitrite) detected in the incubation buffer after 24 h compared to the initial molar amount of compounds; NO^• release of NONOate (positive control) exceeded the maximum detection limit; data presented as mean ± range.

[7] = Conversion in NO-assay buffer followed by UPLC; assay type: physicochemical; details: after 70 h, 37 °C, presence of cysteine
Experimental: The time-dependent degradation behavior of compounds 4f, 5a–f, and 6a–d as well as celecoxib was followed by UPLC analysis over a time course of 8 days (Figure 4). For that, compounds were incubated at 37 °C in the presence or absence of cysteine in the assay buffer used for the Griess assay. Samples were withdrawn at distinct time points (1, 5, 23, 47, 70, and 191 h), diluted into a mixture of acetonitrile/water, and analyzed.
The time-dependent conversion of NO-COXIBs 5a–f and 6a–d as well as reference compounds 4f and celecoxib in the presence or absence of cysteine in assay buffer was investigated by following the degradation of intact compound and identification of selected degradation products by UPLC. For that, samples were incubated at 37 °C in the assay buffer in the presence or absence of cysteine and at the indicated time point; 5 µL assay buffer of each sample was withdrawn and diluted with 45 µL MeCN/water (50/50 v/v). The samples were thoroughly vortexed and then subjected to UPLC analysis. All samples of one time point were analyzed within a total analysis time of approximately 2.5 h. Conversion was monitored at 254 nm using the following UPLC system: column Aquity UPLC® HSS C18 column (Waters Corporation, Milford, MA, USA; 100 × 2.1 mm, 1.8 µm, 130 Å), UPLC H-Class (Waters Corporation, Milford, MA, USA): quaternary gradient pump QSM, autosampler FTN, column heater CHA, and diode array detector PDAeλ, γ detector Gabi Star (Raytest Isotopenmeßgeräte GmbH, Straubenhardt, Germany), flow rate 0.4 mL/min, eluent: (A): 0.1% acetic acid in MeCN/MeOH 1/1/(B): 0.1% acetic acid in H2O; gradient: t0min 45/55–t0.5min 45/55–t5.5min 95/5–t7.0min 95/5–t7.2min 45/55–t8.5min 45/55). For the identification of degradation products, samples taken after 24 h were additionally subjected to HPLC-HRMS analysis using HPLC system 6. In brief, the NO-COXIBs were converted to the respective hydroxymethyl-substituted compounds and in the presence of cysteine additionally to the cysteine adduct, which could be identified by the respective Δm/z shifts. A detailed comparison of calculated and found m/z-signals is given in Supplementary Material Table S1, and copies of HPLC-HRMS chromatograms and selected spectra are given in Supplementary Material Figures S56–S66.

SMILES | melting point [°C] | chromatographic logD [2] | SI (recombinant human COX-2 [4]) | IC50 (recombinant human COX-2 [4]) [nM] | IC50 (purified ovine COX-1 [5]) [nM] | further results
Cc1ccc(-c2c(Cl)c(CCl)nn2-c2ccc(S(N)(=O)=O)cc2)cc1 [4a, 4-[4-Chloro-3-(chloromethyl)-5-(4-toly)-1H-pyrazol-1-yl]benzenesulfonamide] |  | 3.61 |  |  |  | SI (recombinant human COX-2 [1]): >454; IC50 (purified ovine COX-1 [3]): > 100000 nM
COc1ccc(-c2c(Cl)c(CCl)nn2-c2ccc(S(N)(=O)=O)cc2)cc1 [4b, 4-[4-Chloro-3-(chloromethyl)-5-(4-methoxyphenyl)-1H-pyrazol-1-yl]benzenesulfonamide] | 238 to 240 | 3.53 | 2.3 | 127 | 297 | 
Cc1ccc(-c2c(Cl)c(CCl)nn2-c2ccc(S(C)(=O)=O)cc2)cc1 [4c, 4-Chloro-3-(chloromethyl)-1-[4-(methylsulfonyl)phenyl]-5-(p-tolyl)-1H-pyrazole] |  | 3.9 | >138 | 720 | > 100000 | 
COc1ccc(-c2c(Cl)c(CCl)nn2-c2ccc(S(C)(=O)=O)cc2)cc1 [4d, 4-Chloro-3-(chloromethyl)-5-(4-methoxyphenyl)-1-[4-(methylsulfonyl)phenyl]-1H-pyrazole] | 234 to 236 | 3.84 | >208 | 480 | > 100000 | 
Cc1ccc(-c2cc(CCl)nn2-c2ccc(S(N)(=O)=O)cc2)cc1 [4e, 4-[3-(Chloromethyl)-5-(p-tolyl)-1H-pyrazol-1-yl]benzenesulfonamide] |  | 3.14 |  |  |  | SI (recombinant human COX-2 [1]): >78; IC50 (recombinant human COX-2 [1]; human COX-2, previously reported ref 49): 1270 nM; IC50 (purified ovine COX-1 [3]): > 100000 nM
COc1ccc(-c2cc(CCl)nn2-c2ccc(S(N)(=O)=O)cc2)cc1 [4f, 4-[3-(Chloromethyl)-5-(4-methoxyphenyl)-1H-pyrazol-1-yl]benzenesulfonamide] | 169 to 172 | 3.06 | >270 | 370 | > 100000 | thiol-dependent NO release [6]: not detectable; spontaneous NO release [6]: not detectable; intact compound [7]: quantitatively consumed

Continued, in another order:

melting point [°C] | chromatographic logD [2] | SI (recombinant human COX-2 [4]) | IC50 (recombinant human COX-2 [4]) [nM] | IC50 (purified ovine COX-1 [5]) [nM] | SMILES | further results
173 to 174 |  |  |  |  | COc1ccc(-c2c(Cl)c(CO[N+](=O)[O-])nn2-c2ccc(S(N)(=O)=O)cc2)cc1 (as salt: nitrate) [5b, [4-Chloro-5-(4-methoxyphenyl)-1-(4-sulfamoylphenyl)-1H-pyrazol-3-yl]methyl nitrate] | 
113 to 115 |  |  |  |  | Cc1ccc(-c2c(Cl)c(CO[N+](=O)[O-])nn2-c2ccc(S(C)(=O)=O)cc2)cc1 (as salt: nitrate) [5c, {4-Chloro-1-[4-(methylsulfonyl)phenyl]-5-(p-tolyl)-1H-pyrazol-3-yl}methyl nitrate] | 
141 to 143 |  |  |  |  | COc1ccc(-c2c(Cl)c(CO[N+](=O)[O-])nn2-c2ccc(S(C)(=O)=O)cc2)cc1 (as salt: nitrate) [5d, {4-Chloro-5-(4-methoxyphenyl)-1-[4-(methylsulfonyl)phenyl]-1H-pyrazol-3-yl}methyl nitrate] | 
72 to 74 |  |  |  |  | CCC(=O)NS(=O)(=O)c1ccc(-n2nc(CO[N+](=O)[O-])cc2-c2ccc(C)cc2)cc1 (as salt: nitrate) [6c, {1-[4-(N-Propionylsulfamoyl)phenyl]-5-(p-tolyl)-1H-pyrazol-3-yl}methyl nitrate] | 
 | 3.67 | 5.9 | 434 | 2570 | COc1ccc(-c2c(Cl)c(CO[N+](=O)[O-])nn2-c2ccc(S(N)(=O)=O)cc2)cc1 [5b, [4-Chloro-5-(4-methoxyphenyl)-1-(4-sulfamoylphenyl)-1H-pyrazol-3-yl]methyl nitrate] | thiol-dependent NO release [6]: 20%; spontaneous NO release [6]: no detectable; IC50 (COX-1) (purified ovine COX-1 [5]): considerable COX-1 inhibition potency
 | 3.4 |  |  |  | Cc1ccc(-c2cc(CO[N+](=O)[O-])nn2-c2ccc(S(N)(=O)=O)cc2)cc1 [5e, [1-(4-Sulfamoylphenyl)-5-(p-tolyl)-1H-pyrazol-3-yl]methyl nitrate] | SI (recombinant human COX-2 [1]): >112; IC50 (purified ovine COX-1 [3]): > 100000 nM
